From article PMC5678585, “Screening a protein kinase inhibitor library against Plasmodium falciparum” (Malaria Journal, 2017)
Where two headings read alike, the source gives them in different places.

Tests used:
[1] = test system: normal diploid human fibroblasts (MRC-5 pd30); assay: in vitro; type: cell-based
Method: (§1) Cells were plated and incubated overnight to allow them to adhere as monolayers. A working stock of each test compound was transferred to an intermediate 384-well plate and pre-diluted with minimum essential media (MEM). The pre-diluted stocks were then transferred onto the cell monolayers, and the plates were incubated for 68 h. Resazurin, to a final concentration of 50 μM was added to each well, after which plates were incubated for a further 3 h and measured for fluorescence (λ ex = 528 nm, λ em = 590 nm).
(§2) All data were processed using IDBS ActivityBase. […] The formula used to calculate Z’ is 1-3×(StDev_high+StDev_low)/ABS(Mean_high-Mean_low) .
(§3) All EC50 Curve fitting was undertaken using XLFit version 4.2 using Model 205 with the following 4 parametric equation: y=A+B-A/1+[…], where A = % inhibition at bottom, B = % inhibition at top, C = EC50, D = slope, x = inhibitor concentration and y = % inhibition.

[2] = test system: Plasmodium falciparum 3D7; assay: microbe, parasite or virus in culture
Method: Growth inhibition was quantified using a fluorescence assay utilizing the binding of SYBR Green I to double stranded DNA, which emits a fluorescent signal at 528 nm after excitation at 485 nm. The SYBR Green assay system was adapted to maximize robustness and to align with available automation systems. The Prestwick Library then used as a pilot screen to validate the performance of the optimized assay. […] Single point screens were carried out, and the potency of compounds of interest was determined in duplicate on two independent occasions. A 96-well [^3H]-Hypoxanthine incorporation assay was also developed as a secondary assay in order to validate key compounds from each hit series in an orthogonal platform.
as §2
Two independent assays were run.

Plasmodium falciparum = assay: [3H]-Hypoxanthine incorporation assay (orthogonal, radiometric); type: cell-based
Method: Cultures of 3D7, a P. falciparum chloriquine sensitive reference strain, were maintained in a 5% suspension of A+ human red blood cells (obtained from East of Scotland Blood Transfusion Service, Ninewells Hospital, Dundee, UK) cultured in RPMI 1640 medium (pH 7.3) supplemented with 0.5% Albumax II (Gibco Life Technologies, San Diego, CA, USA), 12 mM sodium bicarbonate, 0.2 mM hypoxanthine, and 20 mg/l gentamicin at 37 °C, in a humidified atmosphere of 1% O2, 3% CO2 with a balance of nitrogen. Growth inhibition was quantified using a fluorescence assay utilizing the binding of SYBR Green I to double stranded DNA, which emits a fluorescent signal at 528 nm after excitation at 485 nm. The SYBR Green assay system was adapted to maximize robustness and to align with available automation systems. The Prestwick Library then used as a pilot screen to validate the performance of the optimized assay. […] Single point screens were carried out, and the potency of compounds of interest was determined in duplicate on two independent occasions. A 96-well [^3H]-Hypoxanthine incorporation assay was also developed as a secondary assay in order to validate key compounds from each hit series in an orthogonal platform.
The traditionally used [^3H]-hypoxanthine incorporation assay is labour intensive, low throughput and requires the use of radio-labelled hypoxanthine.

[3] = test system: normal diploid human fibroblasts (MRC-5 pd30); settings: read-out: MRC5 EC50, cited from earlier work
[4] = test system: Plasmodium falciparum 3D7; settings: Table 7, MMV04 SAR; data reported previously ref 24, 25; read-out: P. fal. EC50; cited from earlier work
in vitro = type: cell-based; settings: human, MRC-5 pd30 normal diploid fibroblasts (monolayers); Table 8, MMV03 SAR; read-out: MRC5 EC50
Method: as §1, §2, §3

[5] = Table 4, primary hits of kinase library, read-out: EC50 MRC5 cells
[6] = Table 6, MMV02 SAR, read-out: MRC5 EC50
[7] = read-out: EC50 Fluorescent (SYBR Green), C.I. 95%, n = 4
[8] = read-out: EC50 P. falciparum, Table 4, primary hits of kinase library
[9] = read-out: P. fal. EC50, Table 6, MMV02 SAR
[10] = C.I. 95%, n = 2, read-out: EC50 Radiometric ([3H]-hypoxanthine)
[11] = Table 8, MMV03 SAR, read-out: MRC5 EC50
[12] = read-out: P. fal. EC50, Table 8, MMV03 SAR
[13] = Table 7, MMV04 SAR, read-out: MRC5 EC50
[14] = read-out: P. fal. EC50, Table 7, MMV04 SAR
[15] = Plasmodium falciparum, 3D7, read-out: P. fal. EC50

Compound: Fc1ccc(-c2cc(Nc3ccncc3)nc(-c3ccccc3)n2)cc1 [Compound A0002]
- EC50 [1, 5]: 6 µM
- EC50 [1, 6]: 6 µM
- EC50 [2, 7]: 0.23 ± 0.04 µM
- EC50 [2, 8]: 0.2 µM
- EC50 [2, 9]: 0.2 µM
- EC50 (Plasmodium falciparum; [10]): 0.06 ± 0.07 µM

Compound: O=C(Nc1cccnc1)c1cn(-c2ccccc2)nc1-c1cccs1 [Compound A0003]
- EC50 [1, 5]: > 15 µM
- EC50 [1, 11]: > 50 µM
- LLE (ligand-lipophilicity efficiency) ([2]; Table 8, MMV03 SAR): 3.2
- EC50 [2, 7]: 0.59 ± 0.12 µM
- EC50 [2, 8]: 0.6 µM
- EC50 [2, 12]: 0.3 µM
- EC50 (Plasmodium falciparum; [10]): 0.15 ± 0.25 µM

Compound: O=C(Nc1cccnc1)c1cc(-c2cccnc2)nc2ccc(Br)cc12 [Compound A0004]
- EC50 [1, 5]: > 15 µM
- EC50 [1, 13]: > 15 µM
- EC50 [2, 7]: 0.7 ± 0.07 µM
- EC50 [2, 8]: 0.7 µM
- EC50 [2, 14]: 0.7 µM
- EC50 (Plasmodium falciparum; [10]): 0.41 ± 0.47 µM

Compound: Fc1ccccc1-c1cc(Nc2ccncc2)nc(-c2ccccc2)n1 [Compound A0021]
- EC50 ([3]; Table 6, MMV02 SAR, data reported previously ref 23): > 50 µM

Compound: FC(F)(F)Oc1ccc(Nc2cc(-c3cccc(C(F)(F)F)c3)nc(-c3ccccc3)n2)cc1 [Compound A0022]
- EC50 [1, 6]: 11 µM
- activity against P. falciparum relative to A0002 ([2]; MMV02 series): tenfold less active
- EC50 [2, 9]: 2.3 µM

Compound: CCOC(=O)c1ccc(NC(=O)c2cc(-c3cccnc3)nc3ccc(Cl)cc23)cc1 [Compound A0024]
- EC50 [1, 13]: 18 µM
- EC50 [2, 14]: 0.2 µM

Compound: Cc1ccc(-c2cc(C(=O)Nc3cccnc3)c3cc(Br)ccc3n2)cc1 [Compound A0031]
- EC50 ([3]; Table 7, MMV04 SAR, data reported previously ref 24, 25): 20 µM
- EC50 [4]: 0.12 µM
- activity against P. falciparum relative to A0004 ([2]; MMV04 series): fivefold more active

Compound: O=C(Nc1nc2ccccc2[nH]1)c1cn(-c2ccccc2)nc1-c1cccnc1 [Compound A0032]
- EC50 [1, 11]: 21 µM
- LLE (ligand-lipophilicity efficiency) ([2]; Table 8, MMV03 SAR): 2.9
- EC50 [2, 12]: 0.5 µM

Compound: O=C(Nc1ccncc1)c1cn(-c2ccccc2)nc1-c1cccs1 [Compound A0033]
- EC50 [1, 11]: 39 µM
- LLE (ligand-lipophilicity efficiency) ([2]; Table 8, MMV03 SAR): 2.9
- EC50 [2, 12]: 0.7 µM

Compound: O=C(Nc1nc2ccccc2[nH]1)c1cn(-c2ccccc2)nc1-c1cccs1 [Compound A0034]
- EC50 at 68 h (in vitro): 13 µM
- EC50 [2, 15]: 0.8 µM
- LLE (ligand-lipophilicity efficiency) ([2]; Table 8, MMV03 SAR): 2

Compound: CC(C)CCNC(=O)c1cn(-c2ccccc2)nc1-c1cccs1 [Compound A0036]
- EC50 [1, 11]: 50 µM
- LLE (ligand-lipophilicity efficiency) ([2]; Table 8, MMV03 SAR): 1.1
- EC50 [2, 12]: 18 µM

Compound: CCN(CC)CCNC(=O)c1cn(-c2ccccc2)nc1-c1cccs1 [Compound A0037]
- EC50 [1, 11]: 18 µM
- LLE (ligand-lipophilicity efficiency) ([2]; Table 8, MMV03 SAR): 2.7
- EC50 [2, 12]: 13 µM

Compound: O=C(Nc1cccnc1)c1cn(-c2ccccc2)nc1-c1cccnc1 [Compound A0038]
- EC50 [1, 11]: 18 µM
- LLE (ligand-lipophilicity efficiency) ([2]; Table 8, MMV03 SAR): 3.2
- EC50 [2, 12]: 2 µM

Compound: CC(C)c1nn(-c2ccccc2)cc1C(=O)Nc1cccnc1 [Compound A0039]
- EC50 at 68 h (in vitro): 50 µM
- EC50 [2, 15]: 21 µM
- LLE (ligand-lipophilicity efficiency) ([2]; Table 8, MMV03 SAR): 2.1

Compound: Cc1nn(-c2ccccc2)cc1C(=O)Nc1cccnc1 [Compound A0040]
- EC50 at 68 h (in vitro): 50 µM
- EC50 [2, 15]: 10 µM
- LLE (ligand-lipophilicity efficiency) ([2]; Table 8, MMV03 SAR): 2.8

Compound: N#Cc1ccc(-n2cc(C(=O)Nc3nc4ccccc4[nH]3)c(-c3cccnc3)n2)cc1 [Compound A0041]
- EC50 [1, 11]: 15 µM
- LLE (ligand-lipophilicity efficiency) ([2]; Table 8, MMV03 SAR): 3.2
- EC50 [2, 12]: 0.4 µM

Compound: O=C(Nc1nc2ccccc2[nH]1)c1cn(-c2ccc(F)cc2)nc1-c1cccnc1 [Compound A0042]
- EC50 [1, 11]: 14 µM
- LLE (ligand-lipophilicity efficiency) ([2]; Table 8, MMV03 SAR): 2.8
- EC50 [2, 12]: 0.6 µM

Compound: CC(C)(C)n1cc(C(=O)Nc2nc3ccccc3[nH]2)c(-c2cccnc2)n1 [Compound A0043]
- EC50 at 68 h (in vitro): > 50 µM
- EC50 [2, 15]: 14 µM
- LLE (ligand-lipophilicity efficiency) ([2]; Table 8, MMV03 SAR): 1.2

Compound: Cn1cc(C(=O)Nc2cccnc2)c(-c2cccs2)n1 [Compound A0044]
- EC50 at 68 h (in vitro): > 50 µM
- EC50 [2, 15]: > 50 µM
- LLE (ligand-lipophilicity efficiency) ([2]; Table 8, MMV03 SAR): 2

Compound: COc1cc(NC(=O)c2cc(-c3cccnc3)nc3ccc(Br)cc23)cc(OC)c1 [Compound A0410]
- EC50 [1, 13]: > 50 µM
- EC50 [2, 14]: 0.74 µM

Compound: O=C(Nc1cccnc1)c1cc(-c2cccnc2)nc2ccc(Cl)cc12 [Compound A0421]
- EC50 [1, 13]: > 50 µM
- EC50 [2, 14]: 0.38 µM

Compound: OC(c1cc(C(F)(F)F)nc2c(C(F)(F)F)cccc12)C1CCCCN1 (stereo not shown) [Mefloquine, reference compound]
- EC50 ([2]; Plasmodium falciparum, 3D7): 0.048 ± 0.004 µM
- EC50 (Plasmodium falciparum; Plasmodium falciparum, [3H]-hypoxanthine incorporation assay, read-out: EC50): 0.007 to 0.01 µM
